Test results published in US10035819B2, “PPAR agonists and methods of use thereof” (The Salk Institute for Biological Studies, priority 2014, dated 2018).
pEC50: −log10 of the molar value. Converted amounts (≈) assume the structure as drawn. Like-named read-outs stand apart in the source and are kept apart here. One block for each compound: values may come before it.

Legend:
[1] = % Parent remained in HLM; assay type: in vitro ADME
[2] = Solubility (kinetic, thermodynamic); assay type: physicochemical
[3] = assay type: in vitro ADME; conditions: MLM
[4] = Pharmacokinetics in male CD-1 mice (i.v. and p.o.); assay type: in vivo; conditions: CD-1 mice; for Vd: CD-1, mouse, 3 mg/kg
Procedure: The oral bioavailability and serum half lives of PPARδ ligands were compared in mice. The pharmacokinetics of PPARδ ligands delivered orally (10 mg/kg p.o.) and intravenously (3 mg·kg i.v.) were determined by mass spectrometry.
In this example, the PK profile of several PPARδ agonists disclosed herein in male CD-1 mice or Wistar rats was determined. Similar methods can be used to analyze other compounds provided herein.
(quantity sufficient ie made up to a final volume of 100% with water). All compounds were separately administered to CD-1 mice at 3 mg/kg iv or 10 mg/kg po.
The concentration of the compound in plasma was determined, as illustrated in FIGS. 9A-9E.

[5] = target: T1, Human PPARδ LBD (Homo sapiens, UniProt Q03181); assay: PPARδ activity screen (GAL4-PPARδ LBD luciferase transactivation in CV-1 cells); assay type: cell-based
T1 construct: (PPARδ amino acid 128 to C-terminus); expressed in transfected cells; host or cells: CV-1 cells
T1 sequence (Q03181 128-441 limits assumed): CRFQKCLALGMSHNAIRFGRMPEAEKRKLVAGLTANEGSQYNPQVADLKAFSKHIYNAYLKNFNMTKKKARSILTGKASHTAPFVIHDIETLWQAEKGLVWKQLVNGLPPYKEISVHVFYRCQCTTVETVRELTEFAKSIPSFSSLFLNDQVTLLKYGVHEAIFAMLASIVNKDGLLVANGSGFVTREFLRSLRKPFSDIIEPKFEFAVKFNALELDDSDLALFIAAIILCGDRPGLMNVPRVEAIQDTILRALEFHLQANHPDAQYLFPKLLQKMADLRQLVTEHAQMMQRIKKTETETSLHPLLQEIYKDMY
Procedure: Cell Culture and Transfection: CV-1 cells were grown in DMEM+10% charcoal stripped FCS. Cells were seeded into 384-well plates the day before transfection to give a confluency of 50-80% at transfection. A total of […] containing 0.64 micrograms pCMX-PPARDelta LBD, 0.1 micrograms pCMXβGal, 0.08 micrograms pGLMH2004 reporter and 0.02 micrograms pCMX empty vector was transfected per well using FuGene transfection reagent according to the manufacturer's instructions (Roche).
Plasmids: Human PPARδ was used to PCR amplify the PPARδ LBD. […] Ensuing fusions were verified by sequencing.
Compounds: All compounds were dissolved in DMSO and diluted 1:1000 upon addition to the cells. Compounds were tested in quadruple in concentrations ranging from 0.001 to 100 μM. […] Each compound was tested in at least two separate experiments.
Luciferase assay: Medium including test compound was aspirated and washed with PBS. 50 μl PBS including 1 mM Mg++ and Ca++ were then added to each well. The luciferase assay was performed using the LucLite kit according to the manufacturer's instructions (Packard Instruments). Light emission was quantified by counting on a Perkin Elmer Envision reader. […] Beta-galactosidase assays were performed in the microwell plates using a kit from Promega and read in a Perkin Elmer Envision reader. The beta-galactosidase data were used to normalize (transfection efficiency, cell growth etc.) the luciferase data.
Statistical Methods: The activity of a compound is calculated as fold induction compared to an untreated sample. […] EC50 values were calculated via non-linear regression using GraphPad PRISM (GraphPad Software, San Diego, Calif.).

[6] = target: T2, PPARδ (Homo sapiens, UniProt Q03181); assay: Nuclear Hormone Receptor (NHR) protein interaction assay (PathHunter), agonist format; assay type: cell-based
T2 construct: expressed in transfected cells; host or cells: PathHunter NHR cell lines
T2 sequence (Q03181 1-441): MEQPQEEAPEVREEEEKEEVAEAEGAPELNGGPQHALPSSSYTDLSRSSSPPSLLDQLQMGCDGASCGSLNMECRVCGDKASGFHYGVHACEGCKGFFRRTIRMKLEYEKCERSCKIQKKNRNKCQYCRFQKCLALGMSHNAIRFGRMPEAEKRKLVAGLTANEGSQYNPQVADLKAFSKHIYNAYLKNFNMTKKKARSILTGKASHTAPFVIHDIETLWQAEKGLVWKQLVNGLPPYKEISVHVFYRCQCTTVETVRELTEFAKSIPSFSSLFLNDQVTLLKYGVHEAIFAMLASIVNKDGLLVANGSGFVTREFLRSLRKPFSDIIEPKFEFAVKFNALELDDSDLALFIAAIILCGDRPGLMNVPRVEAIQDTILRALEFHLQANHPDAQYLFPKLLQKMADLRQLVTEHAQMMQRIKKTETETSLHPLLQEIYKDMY
Procedure: • Cell Handling: PathHunter NHR cell lines were expanded from freezer stocks according to standard procedures. Cells were seeded in a total volume of 20 μL into white walled, 384-well microplates and incubated at 37° C. for the appropriate time prior to testing. Assay media contained charcoal-dextran filtered serum to reduce the level of hormones present. • Agonist Format: For agonist determination, cells were incubated with sample to induce response. Intermediate dilution of sample stocks was performed to generate 5× sample in assay buffer. 5 μL of 5× sample was added to cells and incubated at 37° C. or room temperature for 3-16 hours. Final assay vehicle concentration was 1%. • Antagonist Format: For antagonist determination, cells were pre-incubated with antagonist followed by agonist challenge at the EC80 concentration. Intermediate dilution of sample stocks was performed to generate 5× sample in assay buffer. 5 μL of 5× sample was added to cells and incubated at 37° C. or room temperature for 60 minutes. Vehicle concentration was 1%. […] Microplates were read following signal generation with a PerkinElmer Envision™ instrument for chemiluminescent signal detection. • Data Analysis: Compound activity was analyzed using CBIS data analysis suite (ChemInnovation, CA). For agonist mode assays, percentage activity was calculated using the following formula: % Activity=100%×(mean RLU of test sample−mean RLU of vehicle control)/(mean MAX control ligand−mean RLU of vehicle control).
For antagonist mode assays, percentage inhibition was calculated using the following formula: % Inhibition=100%×(1−(mean RLU of test sample−mean RLU of vehicle control)/(mean RLU of EC80 control−mean RLU of vehicle control)). Note that for select assays, the ligand response produces a decrease in receptor activity (inverse agonist with a constitutively active target). For those assays inverse agonist activity was calculated using the following formula: % Inverse Agonist Activity=100%×((mean RLU of vehicle control−mean RLU of test sample)/(mean RLU of vehicle control−mean RLU of MAX control)).

[7] = tested on: AKO mice; assay: GW treatment in mouse model of ALD (AKO mice), fatty acid analysis by GC/MS and gene expression; assay type: in vivo
Description: ALD is a rare genetic disorder caused by defects in peroxisomal oxidation of very long-chain fatty acids (VLCFAs), resulting in systemic accumulation of VLCFAs, which causes tissue defects mainly in the central nervous system and the adrenal glands. The majority of VLCFAs in the body are endogenously synthesized from long-chain fatty acids (LCFAs). Therefore, one potential way to prevent VLCFA accumulation in ALD is by inducing mitochondrial LCFA oxidation to reduce the availability of LCFAs for VLCFA biosynthesis. In order to test this, a previously described mouse model of ALD was used, in which the X-linked adrenoleukodystrophy gene abcdl was systemically ablated and the knockout (AKO) mice faithfully recapitulated the abnormal VLCFA accumulation phenotype seen in ALD patients.
3-month-old AKO mice were treated with or without GW and their tissues collected for free FA analysis using GC/MS.

[8] = male, mouse, iv, 3 mg/Kg i.v., plasma
[9] = male, mouse, po, 10 mg/Kg p.o., plasma

% Parent remained at 15 min, HLM ([1]; 15 min): 92%
% Parent remained at 60 min, HLM ([1]; 60 min): 64%
solubility kinetic ([2]; kinetic from dmso stock): 6 µM (≈ 2.69 µg/mL)
solubility thermodynamic ([2]; thermodynamic from solid): 253 µM (≈ 113 µg/mL)
% Parent remained at 15 min, MLM ([3]; 15 min): 59%
% Parent remained at 60 min, MLM ([3]; 60 min): 19%
Cl ([4]; 3 mg/Kg i.v., plasma): 194.938 mL/min/kg
Kel ([4]; 3 mg/Kg i.v., plasma): 3.85 h⁻¹
F ([4]; 10 mg/Kg p.o. vs 3 mg/Kg i.v.): ~22%
Vd ([4]; male, plasma, iv, 3 mg/Kg i.v., plasma, read-out: Vss): 1.58 L/kg
Vd ([4]; male, plasma, iv, 3 mg/Kg i.v., plasma, read-out: Vz): 3.03 L/kg
AUC(0-inf) [4, 8]: 256 ng·h/mL
C0 [4, 8]: 1940 ng/mL
MRT [4, 8]: 7.2 min
half-life ([4]; male, mouse, iv, 3 mg/Kg i.v., plasma, read-out: Beta T1/2 (converted)): 10.8 min
AUC(0-inf) [4, 9]: 187 ng·h/mL
Cmax [4, 9]: 129 ng/mL
Tmax [4, 9]: 30 min
half-life ([4]; male, mouse, po, 10 mg/Kg p.o., plasma, read-out: T1/2 (converted)): 156 min
Compound: O=C(O)CCCCCOc1ccccc1CN(C(=O)c1ccc(-c2ccco2)cc1)C1CC1 [compound 12]

Compound: CCC(C)N(Cc1ccccc1OCCCCCC(=O)O)C(=O)c1ccc(-c2ccco2)cc1 (centres unmarked) [compound 37]
EC50 ([5]; EC50 nM, Table 1, CV-1 cells, GAL4-PPARδ LBD luciferase reporter, compound 24 h): 41 nM
EC50 ([5]; PPARd, EC50 (nM) (from Salk), Table 15): 41 nM
pEC50 [6]: 7.76

Compound: Cc1cc(SCc2sc(-c3ccc(C(F)(F)F)cc3)nc2C)ccc1OCC(=O)O [GW]
levels of VLCFAs (C22:0, C23:0, C24:0, C26:0) in AKO brain and liver ([7]; 8 weeks of GW treatment, 3-month-old AKO mice): significantly reduced
liver C26:0 ([7]; 8 weeks of GW treatment, most GW-treated animals): cleared
most saturated LCFAs (C12:0 to C22:0) and total FAs ([7]; AKO liver and muscle): significantly reduced
expression of mitochondrial FA oxidation genes (Cptla and lb, Slc25a20, Acadl) ([7]; AKO liver and skeletal muscle): dramatically induced

Compound: CC(C)N(Cc1ccccc1OCCCCCC(=O)O)C(=O)c1ccc(-c2ccco2)cc1 [compound 61]
pEC50 ([5]; Table 1, CV-1 cells, GAL4-PPARδ LBD luciferase reporter, compound 24 h, read-out: EC50): 8.05
EC50 ([5]; Table 15, read-out: PPARd, EC50 (nM) (from Salk)): 9 nM
EC50 ([6]; PathHunter NHR cell line, agonist format, read-out: NHR protein interaction assay, EC50 (nM) for PPARδ): 5.9 nM
